Reference: patent publication US20240279232A1, “USE OF SUBSTITUTED 5-(4-METHYL-6-PHENYL-4H-BENZO[F]IMIDAZO[1,5-A][1,4] DIAZEPIN-3-YL)-1,2,4-O[…] THE TREATMENT OF INFLAMMATORY CONDITIONS” (priority 2021, published 2024)

Tests used:
iNOS mRNA = experiment: iNOS RT-qPCR in activated microglia; assay type: cell-based, mouse; conditions: 10 μM
Description: Mouse microglia were activated with IFNγ/LPS and treated with vehicle or 10 μM GL-IV-03. mRNA was isolated after 15 min, 1 h, 3 h and 6 h and iNOS was quantified using RT-qPCR. Cycle numbers for each sample were normalized to GAPDH using the ΔCt method (n=3). Mouse microglia were activated with IFNγ/LPS and treated with vehicle or 10 μM GL-IV-03 for 24 h. Cellular protein was extracted and analyzed with the mouse iNOS ELISA kit from Abcam (n=3). *, (p<0.05), ** (p<0.01) or *** (p<0.001) significance was calculate with ANOVA.
iNOS RT-qPCR. 1×10^6 mouse microglia cells were plated in 6 well plates (VWR, 10062-892) in 1-2 mL of media, activated with 50 ng/ml LPS (Invivogen, NC9836) and 150 U/mL IFNγ (R&D Systems, 485MI100), and treated with compounds of interest. […] Plates were incubated for stated times at 37° C. and 5% CO2. mRNA was collected using QIAshredder (Qiagen, 79654) and RNeasy Mini Kit (Qiagen, 74104). mRNA was analyzed using the QuantiFast SYBR Green RT-PCR kit (Qiagen, 204154) along with iNOS primers (F. 5′-ACATCAGGTCGGCCATCACT-3′, R: 5′-CGTACCGGATGAGCTGTGAAT-3′). Expected product size was 87 bp. Data were acquired using an Eppendorf Mastercycler Pro and analyzed by the Delta Ct method. Each measurement was carried out in triplicate and significance analyzed by ANOVA. […]

5-HT3 = 5-HT3 (Homo sapiens, UniProt P46098); experiment: PDSP primary binding 5-HT3; conditions: PDSP primary screening
Description: (§1) Because reduction of NO could not be reversed by GABAAR antagonists, the possible binding of MP-IV-010 to other cellular receptors was evaluated in collaboration with the NIMH Psychoactive Drug Screening Program.
(§2) Psychoactive Drug Screening Program. Detailed protocols for the primary and secondary radioligand binding assays can be found in the National Institute of Mental Health's Psychoactive Drug Screening Program (NIMH PDSP) Assay Protocol Book. Briefly, primary and secondary radioligand binding assays are carried out in a final of volume of 125 μL per well in appropriate binding buffer. The radioactive ligand concentration is close to the Kd. Total binding and nonspecific binding are determined in the absence and presence of 10 μM of appropriate reference compound, respectively. In brief, plates are usually incubated at room temperature and in the dark for 90 min. Reactions are stopped by vacuum filtration onto 0.3% polyethyleneimine (PEI) soaked 96-well filter mats using a 96-well Filtermate harvester, followed by three washes with cold PBS buffer. Scintillation cocktail is then melted onto the microwave-dried filters on a hot plate and radioactivity counted in a Microbeta counter. The data (n=6) were analyzed by nonlinear regression.

Alpha2B = Alpha2B (Homo sapiens, UniProt P18089); experiment: PDSP primary binding Alpha2B; conditions: PDSP primary screening
Description: as §1, §2

H4 = H4 (Homo sapiens, UniProt Q9H3N8); experiment: PDSP primary binding H4; conditions: PDSP primary screening
Description: as §1, §2

5-HT1D = 5-HT1D (Homo sapiens, UniProt P28221); experiment: PDSP primary binding 5-HT1D; conditions: PDSP primary screening
Description: as §1, §2

Beta3 = Beta3 (Homo sapiens, UniProt P13945); experiment: PDSP primary binding Beta3; conditions: PDSP primary screening
Description: as §1, §2

5-HT1A = 5-HT1A (Homo sapiens, UniProt P08908); experiment: PDSP primary binding 5-HT1A; conditions: PDSP primary screening
Description: as §1, §2

DAT = DAT (Homo sapiens, UniProt Q01959); experiment: PDSP primary binding DAT; conditions: PDSP primary screening
Description: as §1, §2

5-HT1B = 5-HT1B (Homo sapiens, UniProt P28222); experiment: PDSP primary binding 5-HT1B; conditions: PDSP primary screening
Description: as §1, §2

5-HT2C = 5-HT2C (Homo sapiens, UniProt P28335); experiment: PDSP primary binding 5-HT2C; conditions: PDSP primary screening
Description: as §1, §2

D4 = D4 (Homo sapiens, UniProt P21917); experiment: PDSP primary binding D4; conditions: PDSP primary screening
Description: as §1, §2

5-HT1E = 5-HT1E (Homo sapiens, UniProt P28566); experiment: PDSP primary binding 5-HT1E; conditions: PDSP primary screening
Description: as §1, §2

Beta1 = Beta1 (Homo sapiens, UniProt P08588); experiment: PDSP primary binding Beta1; conditions: PDSP primary screening
Description: as §1, §2

Alpha1D = Alpha1D (Homo sapiens, UniProt P25100); experiment: PDSP primary binding Alpha1D; conditions: PDSP primary screening
Description: as §1, §2

5-HT6 = 5-HT6 (Homo sapiens, UniProt P50406); experiment: PDSP primary binding 5-HT6; conditions: PDSP primary screening
Description: as §1, §2

Alpha1B = Alpha1B (Homo sapiens, UniProt P35368); experiment: PDSP primary binding Alpha1B; conditions: PDSP primary screening
Description: as §1, §2

5-HT5A = 5-HT5A (Homo sapiens, UniProt P47898); experiment: PDSP primary binding 5-HT5A; conditions: PDSP primary screening
Description: as §1, §2

D5 = D5 (Homo sapiens, UniProt P21918); experiment: PDSP primary binding D5; conditions: PDSP primary screening
Description: as §1, §2

H1 = H1 (Homo sapiens, UniProt P35367); experiment: PDSP primary binding H1; conditions: PDSP primary screening
Description: as §1, §2

M2 = M2 (Homo sapiens, UniProt P08172); experiment: PDSP primary binding M2; conditions: PDSP primary screening
Description: as §1, §2

Alpha1A = Alpha1A (Homo sapiens, UniProt P35348); experiment: PDSP primary binding Alpha1A; conditions: PDSP primary screening
Description: as §1, §2

α3β3γ2 GABAAR = α3β3γ2 GABAAR (Homo sapiens, UniProt P18507+P34903); experiment: Membrane potential red dye assay; assay type: cell-based
Description: To determine the affinity of MP-IV-010 for these receptors, concentration dependent assays were carried out as depicted in FIG. 4A-4C.

Alpha2C = Alpha2C (Homo sapiens, UniProt P18825); experiment: PDSP primary binding Alpha2C; conditions: PDSP primary screening
Description: as §1, §2

DAT, sequence (Q01959 whole entry, species assumed): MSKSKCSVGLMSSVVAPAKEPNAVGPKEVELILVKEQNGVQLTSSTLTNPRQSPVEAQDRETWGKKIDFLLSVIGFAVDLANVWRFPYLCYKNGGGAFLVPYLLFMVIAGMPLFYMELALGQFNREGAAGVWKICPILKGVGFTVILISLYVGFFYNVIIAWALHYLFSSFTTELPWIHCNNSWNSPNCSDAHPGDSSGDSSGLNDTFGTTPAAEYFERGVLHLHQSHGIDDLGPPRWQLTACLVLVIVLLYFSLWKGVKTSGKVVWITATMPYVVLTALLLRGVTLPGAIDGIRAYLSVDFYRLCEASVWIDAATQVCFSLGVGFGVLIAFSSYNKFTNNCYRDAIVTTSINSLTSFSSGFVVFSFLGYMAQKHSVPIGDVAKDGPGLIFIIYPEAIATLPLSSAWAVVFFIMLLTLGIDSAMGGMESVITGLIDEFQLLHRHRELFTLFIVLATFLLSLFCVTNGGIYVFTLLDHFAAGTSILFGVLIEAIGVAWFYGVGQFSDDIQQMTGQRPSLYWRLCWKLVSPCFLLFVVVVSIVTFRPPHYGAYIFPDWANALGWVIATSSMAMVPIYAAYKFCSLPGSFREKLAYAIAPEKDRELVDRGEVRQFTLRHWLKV
D4, sequence (P21917 whole entry): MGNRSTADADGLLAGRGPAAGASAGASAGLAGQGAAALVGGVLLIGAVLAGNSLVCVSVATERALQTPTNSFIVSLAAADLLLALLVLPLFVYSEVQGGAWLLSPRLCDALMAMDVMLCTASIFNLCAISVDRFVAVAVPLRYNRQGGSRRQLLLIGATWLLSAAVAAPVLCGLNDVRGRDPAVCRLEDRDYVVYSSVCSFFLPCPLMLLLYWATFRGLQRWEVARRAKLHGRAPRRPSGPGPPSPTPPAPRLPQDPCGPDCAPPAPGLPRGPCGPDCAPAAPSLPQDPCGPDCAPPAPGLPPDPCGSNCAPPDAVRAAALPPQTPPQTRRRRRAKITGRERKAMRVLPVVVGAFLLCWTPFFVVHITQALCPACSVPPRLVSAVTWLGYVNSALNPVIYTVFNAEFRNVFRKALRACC
Alpha2C, sequence (P18825 whole entry): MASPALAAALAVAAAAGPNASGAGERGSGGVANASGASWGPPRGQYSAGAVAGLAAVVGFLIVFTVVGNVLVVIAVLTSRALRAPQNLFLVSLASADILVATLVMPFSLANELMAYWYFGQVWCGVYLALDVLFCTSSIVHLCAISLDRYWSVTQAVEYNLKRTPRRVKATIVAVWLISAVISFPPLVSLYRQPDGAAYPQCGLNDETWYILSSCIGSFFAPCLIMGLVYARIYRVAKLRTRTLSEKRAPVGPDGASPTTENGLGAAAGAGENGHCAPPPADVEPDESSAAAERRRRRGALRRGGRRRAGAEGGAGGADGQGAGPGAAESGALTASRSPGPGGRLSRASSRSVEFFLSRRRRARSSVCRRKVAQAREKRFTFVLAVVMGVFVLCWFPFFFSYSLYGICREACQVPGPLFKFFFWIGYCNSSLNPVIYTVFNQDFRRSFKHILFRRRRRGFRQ
D5, sequence (P21918 whole entry): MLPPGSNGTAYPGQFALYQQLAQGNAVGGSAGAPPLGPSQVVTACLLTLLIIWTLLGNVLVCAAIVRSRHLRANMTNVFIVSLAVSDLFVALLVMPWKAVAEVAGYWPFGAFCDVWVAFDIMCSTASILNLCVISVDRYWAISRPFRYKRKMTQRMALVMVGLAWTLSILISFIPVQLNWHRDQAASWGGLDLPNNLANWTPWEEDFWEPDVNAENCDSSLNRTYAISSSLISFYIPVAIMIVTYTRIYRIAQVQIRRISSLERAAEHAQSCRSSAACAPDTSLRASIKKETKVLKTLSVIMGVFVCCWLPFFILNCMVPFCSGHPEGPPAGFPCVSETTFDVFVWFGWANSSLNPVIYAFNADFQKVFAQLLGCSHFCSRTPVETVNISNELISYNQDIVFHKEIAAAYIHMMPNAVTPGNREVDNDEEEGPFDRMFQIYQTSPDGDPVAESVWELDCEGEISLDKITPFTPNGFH
5-HT1A, sequence (P08908 whole entry, species assumed): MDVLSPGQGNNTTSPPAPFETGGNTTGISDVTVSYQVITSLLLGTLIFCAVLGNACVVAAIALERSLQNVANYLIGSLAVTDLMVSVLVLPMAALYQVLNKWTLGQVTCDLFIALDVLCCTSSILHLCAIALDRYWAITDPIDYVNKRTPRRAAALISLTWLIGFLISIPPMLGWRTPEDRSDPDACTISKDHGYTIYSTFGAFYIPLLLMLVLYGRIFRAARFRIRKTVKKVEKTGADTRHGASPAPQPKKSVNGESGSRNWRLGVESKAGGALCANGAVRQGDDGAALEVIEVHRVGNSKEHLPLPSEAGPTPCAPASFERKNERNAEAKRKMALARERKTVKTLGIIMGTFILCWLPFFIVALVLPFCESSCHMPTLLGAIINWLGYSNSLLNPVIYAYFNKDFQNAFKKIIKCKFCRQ
Alpha1D, sequence (P25100 whole entry): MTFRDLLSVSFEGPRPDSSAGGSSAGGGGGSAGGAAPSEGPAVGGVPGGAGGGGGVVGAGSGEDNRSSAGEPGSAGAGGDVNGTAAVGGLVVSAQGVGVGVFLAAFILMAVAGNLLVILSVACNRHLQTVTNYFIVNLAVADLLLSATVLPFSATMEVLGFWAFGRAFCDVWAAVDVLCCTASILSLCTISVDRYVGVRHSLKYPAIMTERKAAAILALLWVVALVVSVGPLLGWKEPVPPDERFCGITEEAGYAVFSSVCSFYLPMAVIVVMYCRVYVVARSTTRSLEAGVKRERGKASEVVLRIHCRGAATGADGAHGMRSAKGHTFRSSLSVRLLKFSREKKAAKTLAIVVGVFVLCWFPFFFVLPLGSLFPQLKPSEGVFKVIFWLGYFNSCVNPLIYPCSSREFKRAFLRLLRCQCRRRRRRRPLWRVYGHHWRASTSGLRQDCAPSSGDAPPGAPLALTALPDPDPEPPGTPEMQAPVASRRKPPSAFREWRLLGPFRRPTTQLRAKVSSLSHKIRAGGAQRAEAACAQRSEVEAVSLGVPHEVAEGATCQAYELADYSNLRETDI
Beta1, sequence (P08588 whole entry): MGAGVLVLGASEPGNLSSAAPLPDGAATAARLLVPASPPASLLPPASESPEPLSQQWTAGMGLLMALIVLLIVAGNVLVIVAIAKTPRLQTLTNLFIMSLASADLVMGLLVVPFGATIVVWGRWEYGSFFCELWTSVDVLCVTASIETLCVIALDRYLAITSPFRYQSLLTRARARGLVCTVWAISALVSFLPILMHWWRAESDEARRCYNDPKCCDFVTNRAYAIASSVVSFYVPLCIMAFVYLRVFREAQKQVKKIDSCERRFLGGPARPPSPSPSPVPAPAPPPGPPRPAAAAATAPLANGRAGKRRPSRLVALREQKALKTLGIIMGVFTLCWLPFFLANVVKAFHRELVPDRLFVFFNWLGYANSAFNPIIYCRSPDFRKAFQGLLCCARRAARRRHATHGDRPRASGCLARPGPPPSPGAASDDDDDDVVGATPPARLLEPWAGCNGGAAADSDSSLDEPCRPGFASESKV
5-HT5A, sequence (P47898 whole entry, species assumed): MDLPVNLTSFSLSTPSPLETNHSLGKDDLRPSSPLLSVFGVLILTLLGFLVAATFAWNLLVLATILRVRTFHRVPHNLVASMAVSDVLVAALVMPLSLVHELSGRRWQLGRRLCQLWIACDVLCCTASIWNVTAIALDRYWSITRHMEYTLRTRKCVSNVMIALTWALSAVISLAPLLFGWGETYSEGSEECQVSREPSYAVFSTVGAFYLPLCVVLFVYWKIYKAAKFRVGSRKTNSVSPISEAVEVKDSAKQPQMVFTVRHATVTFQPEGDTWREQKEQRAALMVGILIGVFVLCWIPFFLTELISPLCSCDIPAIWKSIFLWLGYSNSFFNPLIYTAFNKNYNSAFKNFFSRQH
H4, sequence (Q9H3N8 whole entry): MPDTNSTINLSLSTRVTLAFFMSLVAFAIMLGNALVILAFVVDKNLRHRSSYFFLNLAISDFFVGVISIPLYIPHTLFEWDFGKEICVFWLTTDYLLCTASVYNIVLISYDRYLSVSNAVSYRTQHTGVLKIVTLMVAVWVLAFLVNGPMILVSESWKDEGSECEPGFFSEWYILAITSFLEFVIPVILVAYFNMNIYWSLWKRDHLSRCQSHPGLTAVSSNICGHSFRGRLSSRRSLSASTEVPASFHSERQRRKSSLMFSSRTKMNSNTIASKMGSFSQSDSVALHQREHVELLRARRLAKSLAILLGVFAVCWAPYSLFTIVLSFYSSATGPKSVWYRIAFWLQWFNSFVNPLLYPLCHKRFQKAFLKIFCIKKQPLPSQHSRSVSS
5-HT1D, sequence (P28221 whole entry, species assumed): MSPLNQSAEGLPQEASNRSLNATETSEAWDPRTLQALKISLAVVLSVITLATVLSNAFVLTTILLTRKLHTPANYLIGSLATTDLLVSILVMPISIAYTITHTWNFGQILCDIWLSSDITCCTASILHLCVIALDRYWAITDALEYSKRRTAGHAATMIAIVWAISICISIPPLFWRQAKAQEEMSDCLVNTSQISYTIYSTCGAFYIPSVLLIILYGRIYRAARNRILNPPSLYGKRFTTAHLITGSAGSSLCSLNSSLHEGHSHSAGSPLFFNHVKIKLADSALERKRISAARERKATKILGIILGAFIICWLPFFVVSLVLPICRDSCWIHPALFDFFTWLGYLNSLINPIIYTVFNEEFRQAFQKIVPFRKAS
5-HT1B, sequence (P28222 whole entry, species assumed): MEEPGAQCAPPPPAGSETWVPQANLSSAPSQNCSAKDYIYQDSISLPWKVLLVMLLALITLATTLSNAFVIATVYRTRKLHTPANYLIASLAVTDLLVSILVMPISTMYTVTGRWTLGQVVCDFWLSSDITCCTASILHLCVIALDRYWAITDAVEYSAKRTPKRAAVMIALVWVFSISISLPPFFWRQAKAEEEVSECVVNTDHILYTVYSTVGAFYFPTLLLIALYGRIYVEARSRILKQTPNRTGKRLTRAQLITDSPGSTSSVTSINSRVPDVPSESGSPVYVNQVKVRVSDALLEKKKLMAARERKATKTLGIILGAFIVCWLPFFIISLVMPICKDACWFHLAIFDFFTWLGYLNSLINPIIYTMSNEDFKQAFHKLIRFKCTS

With `CCc1noc(-c2ncn3c2[C@@H](C)N=C(c2ccccc2F)c2cc(C4CC4)ccc2-3)n1` [GL-IV-03, (R)-5-(8-Cyclopropyl-6-(2-fluorophenyl)-4-methyl-4H-benzo[f]imidazo[1,5-a][1,4]diazepin-3-yl)-3-ethyl-1,2,4-oxadiazole] the “iNOS mRNA levels” value (iNOS mRNA; 15, 60, and 180 minutes) was “reduced” and the “iNOS mRNA levels” value (iNOS mRNA; after 6 h) was “increased”.

For `C#Cc1ccc2c(c1)C(c1ccccc1F)=N[C@H](C)c1c(-c3nc(C(C)C)no3)ncn1-2` [MP-IV-010, (R)-5-(8-ethynyl-6-(2-fluorophenyl)-4-methyl-4H-benzo[f]imidazo[1,5-a][1,4]diazepin-3-yl)-3-isopropyl-1,2,4-oxadiazole], the “Percent Competition 5-HT3” value (5-HT3) was 13%, the “Percent Competition Alpha2B” value (Alpha2B) was 29% and the “Percent Competition H4” value (H4) was 6%. The “Percent Competition 5-HT1D” value (5-HT1D) was 6%, the “Percent Competition Beta3” value (Beta3) was 38% and the “Percent Competition 5-HT1A” value (5-HT1A) was 19%. For the same compound, the “Percent Competition DAT” value (DAT) was 14%, the “Percent Competition 5-HT1B” value (5-HT1B) was 29% and the “Percent Competition 5-HT2C” value (5-HT2C) was −2%. The “Percent Competition D4” value (D4) was 5%, the “Percent Competition 5-HT1E” value (5-HT1E) was −7% and the “Percent Competition Beta1” value (Beta1) was 6%. For the same compound, the “Percent Competition Alpha1D” value (Alpha1D) was 9%, the “Percent Competition 5-HT6” value (5-HT6) was 21% and the “Percent Competition Alpha1B” value (Alpha1B) was 15%. For the same compound, the “Percent Competition 5-HT5A” value (5-HT5A) was 11%, the “Percent Competition D5” value (D5) was 29% and the “Percent Competition H1” value (H1) was 19%. The “Percent Competition M2” value (M2) was 10%, the “Percent Competition Alpha1A” value (Alpha1A) was 2% and the EC50 (α3β3γ2 GABAAR) was 14.3 µM. For the same compound, the “Percent Competition Alpha2C” value (Alpha2C) was 31%.
